Patent publication US7351726B2, “Substituted oxadiazolidinediones” (Wyeth, priority 2003, dated 2008)

How the values were obtained:
[1] = target: T1, recombinant human plasminogen activator inhibitor-1 (PAI-1) (Homo sapiens, UniProt P05121); test: Primary screen for PAI-1 inhibition (chromogenic tPA activity assay); assay type: biochemical; settings: 100 μM compound; 140 nM PAI-1, 70 nM tPA; pH 6.6
T1 construct: purchased Molecular Innovations, Royal Oak, Mich
Experimental: Test compounds are dissolved in DMSO at a final concentration of 10 mM, then diluted 100× in physiologic buffer. The inhibitory assay is initiated by the addition of the substituted oxadiazolidinedione (1-100 μM final concentration, maximum DMSO concentration of 0.2%) in a pH 6.6 buffer containing 140 nM recombinant human plasminogen activator inhibitor-1 (PAI-1; Molecular Innovations, Royal Oak, Mich.). Following a 1 hour incubation at room temperature, 70 nM of recombinant human tissue plasminogen activator (tPA) is added, and the combination of the substituted oxadiazolidinedione, PAI-1 and tPA is incubated for an additional 30 minutes. Following the second incubation, Spectrozyme-tPA (American Diagnostica, Greenwich, CT), a chromogenic substrate for tPA, is added and absorbance read at 405 nm at 0 and 60 minutes. Relative PAI-1 inhibition is equal to the residual tPA activity in the presence of WAY and PAI-1. Control treatments include the complete inhibition of tPA by PAI-1 at the molar ratio employed (2:1), and the absence of any effect of the substituted oxadiazolidinedione on tPA alone.

human PAI-1 = human PAI-1 (Homo sapiens, UniProt P05121); test: Assay for determining IC50 of inhibition of PAI-1 (tPA-coated plate, antibody detection of active PAI-1); assay type: binding; settings: active human PAI-1 bound to tPA-coated plate; pH 7.5; compound 1-50 μM
Experimental: This assay is based upon the non-SDS dissociable interaction between tPA and active PAI-1. Assay plates are initially coated with human tPA (10 μg/ml). Substituted oxadiazolidinedione of the present invention are dissolved in DMSO at 10 mM, then diluted with physiologic buffer (pH 7.5) to a final concentration of 1-50 μM. WAY compounds are incubated with human PAI-1 (50 ng/ml) for 15 minutes at room temperature. The tPA-coated plate is washed with a solution of 0.05% Tween 20 and 0.1% BSA, then the plate is blocked with a solution of 3% BSA. An aliquot of the substituted oxadiazolidinedione/PA-1 solution is then added to the tPA-coated plate, incubated at room temperature for 1 hour, and washed. Active PAI-1 bound to the plate is assessed by adding an aliquot of a 1:1000 dilution of the 33B8 monoclonal antibody against human PAI-1, and incubating the plate at room temperature for 1 hour (Molecular Innovations, Royal Oak, Mich.). […] The plate is incubated 45 minutes at room temperature, and color development is determined at OD405nm. The quantitation of active PAI-1 bound to tPA at varying concentrations of substituted oxadiazolidinedione is used to determine the IC50. Results are analyzed using a logarithmic best-fit equation. The assay sensitivity is 5 ng/ml of human PAI-1 as determined from a standard curve ranging from 0-100 ng/ml.

Sequence of human PAI-1 (P05121 24-402): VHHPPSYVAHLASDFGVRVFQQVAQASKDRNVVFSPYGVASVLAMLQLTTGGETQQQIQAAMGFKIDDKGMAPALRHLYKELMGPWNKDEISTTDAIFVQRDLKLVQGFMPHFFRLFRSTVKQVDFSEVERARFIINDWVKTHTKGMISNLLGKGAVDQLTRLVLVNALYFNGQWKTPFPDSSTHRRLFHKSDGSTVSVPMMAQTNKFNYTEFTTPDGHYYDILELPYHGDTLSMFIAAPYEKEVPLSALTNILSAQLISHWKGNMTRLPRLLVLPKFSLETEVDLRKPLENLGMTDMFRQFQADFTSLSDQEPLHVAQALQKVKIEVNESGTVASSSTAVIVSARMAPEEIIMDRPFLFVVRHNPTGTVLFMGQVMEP
T1 sequence (P05121 24-402): as above

Compound	inhibition at 100 µM [1] [%]	IC50 (human PAI-1) [µM]	melting point [°C]
CC/C(=C\Cn1oc(=O)[nH]c1=O)c1ccc2c(Cc3ccccc3)c(CC)oc2c1 [Compound 2, E-2-[-3-(3-Benzyl-2-ethyl-benzofuran-6-yl)-pent-2-enyl]-[1,2,4]oxadiazolidine-3,5-dione]	39		
CC/C(=C/Cn1oc(=O)[nH]c1=O)c1ccc2c(Cc3ccccc3)c(CC)oc2c1 [Compound 1, Z-2-[-3-(3-Benzyl-2-ethyl-benzofuran-6-yl)-pent-2-enyl]-[1,2,4]oxadiazolidine-3,5-dione]		9.3	118 to 120
